Data on six compounds can be found in ChEMBL document CHEMBL1201862, “PubChem BioAssay data set” (2004).

Assay [1] deals with DNA dC->dU-editing enzyme APOBEC-3A (Homo sapiens, UniProt P31941). As to the kind of experiment: SAR analysis of small molecule inhibitors of APOBEC3A DNA Deaminase via a fluorescence-based single-stranded DNA deaminase assay. The class given is functional. To be noted: read-out: IC50_Mean.
Assay [2] addresses DNA dC->dU-editing enzyme APOBEC-3G (Homo sapiens, UniProt Q9HC16). As to the kind of experiment: APOBEC3G deaminase inhibitors, SAR follow-up, biochemical, fluorescence, single-stranded DNA substrate (AID 602136). Type of assay: functional. As to conditions: read-out: IC50_Mean.
For assay [3], the target named is T1, Sentrin-specific protease 8 (Homo sapiens, UniProt Q96LD8).
T1 sequence (Q96LD8 whole entry): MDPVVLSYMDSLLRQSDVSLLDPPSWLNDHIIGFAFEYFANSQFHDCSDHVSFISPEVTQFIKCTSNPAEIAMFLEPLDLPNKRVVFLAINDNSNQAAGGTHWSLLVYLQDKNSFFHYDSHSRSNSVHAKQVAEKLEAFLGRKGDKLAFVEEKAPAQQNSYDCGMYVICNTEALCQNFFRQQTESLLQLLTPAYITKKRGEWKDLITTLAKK
Kind of assay: SENP8 protease inhibitors, SAR follow-up, biochemical, luminescence (AID 504501). The class given is functional.

The target in assay [4] is T2, Sentrin-specific protease 7 (Homo sapiens, UniProt Q9BQF6).
T2 sequence (Q9BQF6 whole entry): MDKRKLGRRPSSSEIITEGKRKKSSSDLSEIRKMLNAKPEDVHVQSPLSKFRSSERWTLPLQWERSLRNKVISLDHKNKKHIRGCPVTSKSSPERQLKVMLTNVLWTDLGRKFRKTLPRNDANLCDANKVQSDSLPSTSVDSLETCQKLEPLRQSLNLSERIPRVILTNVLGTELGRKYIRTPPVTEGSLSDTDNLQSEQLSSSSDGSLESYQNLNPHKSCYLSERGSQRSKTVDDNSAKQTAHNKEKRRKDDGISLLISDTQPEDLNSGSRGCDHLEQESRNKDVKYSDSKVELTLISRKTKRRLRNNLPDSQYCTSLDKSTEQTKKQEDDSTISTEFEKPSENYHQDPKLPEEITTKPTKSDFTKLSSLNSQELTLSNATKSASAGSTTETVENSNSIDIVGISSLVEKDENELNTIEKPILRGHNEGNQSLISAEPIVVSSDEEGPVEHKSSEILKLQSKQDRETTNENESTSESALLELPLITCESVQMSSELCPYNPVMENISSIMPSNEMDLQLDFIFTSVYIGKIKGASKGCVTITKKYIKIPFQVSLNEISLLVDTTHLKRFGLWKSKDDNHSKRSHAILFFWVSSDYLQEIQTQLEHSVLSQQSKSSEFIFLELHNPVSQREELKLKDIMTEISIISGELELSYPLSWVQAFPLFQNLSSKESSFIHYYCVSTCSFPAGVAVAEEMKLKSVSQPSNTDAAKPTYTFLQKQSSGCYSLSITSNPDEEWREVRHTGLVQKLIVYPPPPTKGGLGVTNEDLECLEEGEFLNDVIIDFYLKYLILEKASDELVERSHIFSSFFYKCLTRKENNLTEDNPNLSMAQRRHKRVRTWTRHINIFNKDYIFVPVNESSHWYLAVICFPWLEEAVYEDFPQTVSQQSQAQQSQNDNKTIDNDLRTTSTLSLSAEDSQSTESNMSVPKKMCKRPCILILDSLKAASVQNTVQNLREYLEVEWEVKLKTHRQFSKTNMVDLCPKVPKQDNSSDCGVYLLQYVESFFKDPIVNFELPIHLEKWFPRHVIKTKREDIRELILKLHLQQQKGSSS
Kind of assay: SENP7 protease inhibitors, SAR follow-up, biochemical, luminescence (AID 504497). Type of assay: functional.

Assay [5] addresses T3, Caspase-3 (Homo sapiens, UniProt P42574).
T3 sequence (P42574 whole entry): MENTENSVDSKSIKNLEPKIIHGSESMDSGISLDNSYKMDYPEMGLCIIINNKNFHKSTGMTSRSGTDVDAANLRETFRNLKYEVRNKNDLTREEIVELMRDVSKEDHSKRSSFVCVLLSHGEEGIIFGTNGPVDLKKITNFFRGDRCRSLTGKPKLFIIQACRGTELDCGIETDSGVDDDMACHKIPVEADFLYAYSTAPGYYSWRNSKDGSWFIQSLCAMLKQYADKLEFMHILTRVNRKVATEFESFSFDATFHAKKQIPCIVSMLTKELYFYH
Kind of assay: SAR Analysis of small molecule inhibitors of Sentrin-specific proteases (SENPs) using a Caspase-3 Selectivity assay. [Related pubchem assays (depositor defined):AID2540, AID2599, AID434973, AID489001]. The class given is functional.

Assay [6] addresses T4, Sentrin-specific protease 6 (Homo sapiens, UniProt Q9GZR1).
T4 sequence (Q9GZR1 whole entry): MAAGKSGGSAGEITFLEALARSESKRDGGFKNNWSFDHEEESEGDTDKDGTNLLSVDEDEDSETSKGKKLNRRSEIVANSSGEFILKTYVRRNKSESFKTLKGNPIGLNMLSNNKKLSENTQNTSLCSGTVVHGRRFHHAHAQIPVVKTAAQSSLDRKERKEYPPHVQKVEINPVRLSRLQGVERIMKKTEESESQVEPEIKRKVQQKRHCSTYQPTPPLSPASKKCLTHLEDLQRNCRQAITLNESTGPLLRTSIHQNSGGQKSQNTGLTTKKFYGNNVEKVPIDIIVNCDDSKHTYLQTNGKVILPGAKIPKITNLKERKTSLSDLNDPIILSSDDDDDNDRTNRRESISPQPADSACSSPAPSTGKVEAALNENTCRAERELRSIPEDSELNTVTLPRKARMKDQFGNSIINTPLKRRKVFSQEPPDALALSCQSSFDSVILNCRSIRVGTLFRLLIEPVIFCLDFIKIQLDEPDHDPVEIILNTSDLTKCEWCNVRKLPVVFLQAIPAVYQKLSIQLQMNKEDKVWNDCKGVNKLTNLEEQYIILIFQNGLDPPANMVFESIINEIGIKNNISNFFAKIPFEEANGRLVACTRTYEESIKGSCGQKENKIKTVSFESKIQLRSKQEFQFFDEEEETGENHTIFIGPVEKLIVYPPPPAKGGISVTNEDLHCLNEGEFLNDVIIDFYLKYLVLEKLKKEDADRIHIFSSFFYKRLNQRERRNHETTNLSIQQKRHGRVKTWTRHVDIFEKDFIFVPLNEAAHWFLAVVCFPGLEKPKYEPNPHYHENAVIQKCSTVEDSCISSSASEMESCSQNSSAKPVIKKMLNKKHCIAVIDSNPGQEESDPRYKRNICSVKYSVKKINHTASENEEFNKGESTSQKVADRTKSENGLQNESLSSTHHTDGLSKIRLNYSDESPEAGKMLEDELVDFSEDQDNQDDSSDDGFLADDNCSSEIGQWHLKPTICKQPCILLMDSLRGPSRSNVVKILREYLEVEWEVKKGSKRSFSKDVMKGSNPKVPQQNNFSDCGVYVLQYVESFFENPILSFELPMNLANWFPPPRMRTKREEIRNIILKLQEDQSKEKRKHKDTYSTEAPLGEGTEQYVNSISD
As to the kind of experiment: SAR Analysis of small molecule inhibitors of Sentrin-specific protease 6 (SENP6) using a Luminescent assay. [Related pubchem assays (depositor defined):AID2582, AID2599]. Type of assay: functional.

Assay [7] addresses Protein disulfide-isomerase (Homo sapiens, UniProt P07237). Kind of assay: PDI inhibitors, insulin aggregation turbidity, dose response, biochemical, absorbance, cherry-picked samples (AID 602350). The class given is functional.
Assay [8] is described as follows: inhibitors of intracellular T. cruzi replication, confirmation, NIH3T3 host cells, beta-gal luminescence (AID 2044).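 Also: intracellular parasites grown in NIH/3T3 mouse fibroblasts as host cells; luminescent beta-galactosidase reporter signal from transgenic T. cruzi replicating inside host cells; inhibitors lower the luminescence signal.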 The class given is functional, cell-based.
In assay [9] the target is T5, Insulin-degrading enzyme (Homo sapiens, UniProt P14735).
T5 sequence (P14735 whole entry): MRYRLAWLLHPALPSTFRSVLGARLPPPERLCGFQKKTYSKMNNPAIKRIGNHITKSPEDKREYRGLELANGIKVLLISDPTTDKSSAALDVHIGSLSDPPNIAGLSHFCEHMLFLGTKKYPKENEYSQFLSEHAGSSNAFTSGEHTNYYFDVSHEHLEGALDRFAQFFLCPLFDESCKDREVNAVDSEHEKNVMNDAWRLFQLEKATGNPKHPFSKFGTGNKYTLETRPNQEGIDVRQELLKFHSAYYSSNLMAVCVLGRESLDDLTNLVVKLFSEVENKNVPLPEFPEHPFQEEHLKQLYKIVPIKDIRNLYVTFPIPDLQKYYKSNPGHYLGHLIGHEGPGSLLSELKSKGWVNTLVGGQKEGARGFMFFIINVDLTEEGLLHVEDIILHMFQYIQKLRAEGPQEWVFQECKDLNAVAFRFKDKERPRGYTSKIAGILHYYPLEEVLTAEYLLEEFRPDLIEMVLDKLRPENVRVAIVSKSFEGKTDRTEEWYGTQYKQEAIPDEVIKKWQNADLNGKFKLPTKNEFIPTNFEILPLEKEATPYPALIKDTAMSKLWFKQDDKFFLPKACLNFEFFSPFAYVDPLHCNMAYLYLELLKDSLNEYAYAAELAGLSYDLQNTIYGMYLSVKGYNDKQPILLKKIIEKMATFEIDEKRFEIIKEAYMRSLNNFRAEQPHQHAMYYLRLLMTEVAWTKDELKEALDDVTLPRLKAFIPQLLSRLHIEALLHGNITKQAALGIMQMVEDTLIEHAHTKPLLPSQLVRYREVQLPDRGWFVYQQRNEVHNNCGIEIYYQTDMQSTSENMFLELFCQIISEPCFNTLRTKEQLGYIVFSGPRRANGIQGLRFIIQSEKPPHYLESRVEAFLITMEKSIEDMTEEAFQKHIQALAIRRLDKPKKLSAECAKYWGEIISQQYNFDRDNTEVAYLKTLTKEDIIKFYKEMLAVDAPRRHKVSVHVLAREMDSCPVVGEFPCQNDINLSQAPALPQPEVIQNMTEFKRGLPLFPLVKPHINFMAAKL
Kind of assay: activators of endogenous IDE in HEK cells, dose response, cell-based, fluorescence polarization (AID 588439). Type of assay: functional. (Fluorescence polarisation rises when a labelled molecule tumbles more slowly, as on binding a larger partner.)

The target of assay [10] is T5, Insulin-degrading enzyme. Kind of assay: activators of recombinant IDE enzyme, dose response, counter-screen for IDE activator project, biochemical, fluorescence polarization (AID 588681). On the technique in general: The purpose of a counterscreen is to sort out artefacts and off-target activity.
A short description of assay [11]: cytotoxicity toward NIH3T3 fibroblasts, dose response, counter-screen, cell-based, ATP luminescence, mouse fibroblasts (AID 2010).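 Also: cells exposed to compound for about 90 hours before reading.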 Type of assay: functional.
For assay [12], the system named is HEK293. As to the kind of experiment: optical interference in Abeta FP readout, dose response, artefact control for IDE activator project, biochemical, fluorescence polarization (AID 588442). The class given is functional, cell-based. As to conditions: Homo sapiens.
For assay [13], the target named is Eukaryotic translation initiation factor 4E (Mus musculus, UniProt P63073). As to the kind of experiment: eIF4E–eIF4G protein interaction inhibitors, dose response, biochemical, TR-FRET (AID 855).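 Also: potency for disrupting eIF4E binding to eIF4GI seen as loss of FRET.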 The class given is functional. Background: TR-FRET usually uses a lanthanide donor and a delayed reading to cut background.
Eukaryotic translation initiation factor 4E, sequence (P63073 whole entry): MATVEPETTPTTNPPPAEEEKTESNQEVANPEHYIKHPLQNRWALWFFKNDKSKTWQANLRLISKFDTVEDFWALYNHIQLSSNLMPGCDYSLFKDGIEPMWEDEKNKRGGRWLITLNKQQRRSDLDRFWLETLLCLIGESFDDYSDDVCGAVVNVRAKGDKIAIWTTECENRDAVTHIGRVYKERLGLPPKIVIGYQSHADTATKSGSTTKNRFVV
The test system of assay [14] is HEK293. Kind of assay: HEK cell cytotoxicity by LDH release, dose response, cytotoxicity control for IDE activator project, fluorescence, HEK cells (AID 588440).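 Also: cytotoxicity by LDH release measuring loss of membrane integrity.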 The class given is functional, cell-based. As to conditions: Homo sapiens.
Assay [15] concerns the target T6, SUMO-activating enzyme (Homo sapiens, UniProt Q9UBT2). As to the kind of experiment: inhibitors of in vitro SUMOylation cascade, primary screen, biochemical, HTRF, uHTS (AID 2006). The class given is protein-complex assay.
The nature of assay [16]: cytotoxicity in HEK-293T cells, dose response, cytotoxicity control for BCR NF-kB inhibitor project, luminescence, B-cell screen hits (AID 489021).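 Also: HEK-293T cells carrying an NF-kB luciferase reporter; cells exposed to compound for about 14 hours before viability readout.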 Type of assay: functional, cell-based.
Assay [17] concerns the target T6, SUMO-activating enzyme. As to the kind of experiment: SUMOylation inhibitor hit validation, confirmation, SUMOylation inhibitor project, biochemical, AlphaScreen (AID 2018). Type of assay: functional.
The target of assay [18] is 72 kDa type IV collagenase (Homo sapiens, UniProt P08253). Kind of assay: Dose Response validation of uHTS RPN11 inhibitor hits using a MMP-2 Fluorescence assay. The class given is functional.
72 kDa type IV collagenase, sequence (P08253 whole entry): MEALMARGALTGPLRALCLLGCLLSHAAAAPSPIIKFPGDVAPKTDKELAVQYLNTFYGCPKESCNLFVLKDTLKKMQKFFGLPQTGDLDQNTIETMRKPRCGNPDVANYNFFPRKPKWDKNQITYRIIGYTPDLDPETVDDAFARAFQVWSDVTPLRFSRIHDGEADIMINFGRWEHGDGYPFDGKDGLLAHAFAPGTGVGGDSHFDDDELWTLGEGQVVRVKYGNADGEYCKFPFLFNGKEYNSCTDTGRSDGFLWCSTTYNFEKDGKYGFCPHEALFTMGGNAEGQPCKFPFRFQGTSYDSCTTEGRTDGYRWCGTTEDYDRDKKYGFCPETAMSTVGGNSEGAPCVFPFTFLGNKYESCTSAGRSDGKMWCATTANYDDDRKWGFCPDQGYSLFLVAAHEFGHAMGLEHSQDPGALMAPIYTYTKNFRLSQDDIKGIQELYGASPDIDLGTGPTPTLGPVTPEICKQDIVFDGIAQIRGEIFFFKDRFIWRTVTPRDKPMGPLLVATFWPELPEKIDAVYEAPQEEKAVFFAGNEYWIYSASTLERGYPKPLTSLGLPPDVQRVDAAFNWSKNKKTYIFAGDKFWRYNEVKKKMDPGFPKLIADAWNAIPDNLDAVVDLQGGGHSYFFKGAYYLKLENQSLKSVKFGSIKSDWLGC
In assay [19] the target is 26S proteasome non-ATPase regulatory subunit 14 (Homo sapiens, UniProt O00487). As to the kind of experiment: inhibition of proteasome subunit RPN11 – biochemical, fluorescence polarization, uHTS hits, confirmation (AID 602368). Type of assay: functional.
26S proteasome non-ATPase regulatory subunit 14, sequence (O00487 whole entry): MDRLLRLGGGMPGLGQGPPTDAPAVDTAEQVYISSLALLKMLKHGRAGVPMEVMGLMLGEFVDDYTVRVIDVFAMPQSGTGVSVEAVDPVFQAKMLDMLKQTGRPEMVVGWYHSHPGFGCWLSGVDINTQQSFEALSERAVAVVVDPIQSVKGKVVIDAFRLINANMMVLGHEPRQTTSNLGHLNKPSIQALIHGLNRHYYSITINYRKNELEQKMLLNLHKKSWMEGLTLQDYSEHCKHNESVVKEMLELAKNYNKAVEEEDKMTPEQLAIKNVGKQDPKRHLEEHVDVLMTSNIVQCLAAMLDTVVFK
The target of assay [20] is Prothrombin (Bos taurus, UniProt P00735). As to the kind of experiment: thrombin inhibition, dose response, biochemical, fluorescence polarization, uHTS hits (AID 602369). Type of assay: functional.

Active and inactive are the calls of the source.

T6 sequence (Q9UBE0 whole entry): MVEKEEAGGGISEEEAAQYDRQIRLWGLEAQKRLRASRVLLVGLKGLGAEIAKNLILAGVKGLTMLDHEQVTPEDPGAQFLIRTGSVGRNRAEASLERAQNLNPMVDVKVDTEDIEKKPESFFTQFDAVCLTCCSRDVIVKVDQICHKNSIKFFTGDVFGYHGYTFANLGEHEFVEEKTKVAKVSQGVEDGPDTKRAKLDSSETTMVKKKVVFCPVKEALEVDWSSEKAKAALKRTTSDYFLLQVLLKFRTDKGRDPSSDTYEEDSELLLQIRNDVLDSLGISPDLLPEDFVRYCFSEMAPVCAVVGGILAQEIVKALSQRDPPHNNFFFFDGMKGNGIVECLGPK
T6 sequence (Q9UBT2 whole entry): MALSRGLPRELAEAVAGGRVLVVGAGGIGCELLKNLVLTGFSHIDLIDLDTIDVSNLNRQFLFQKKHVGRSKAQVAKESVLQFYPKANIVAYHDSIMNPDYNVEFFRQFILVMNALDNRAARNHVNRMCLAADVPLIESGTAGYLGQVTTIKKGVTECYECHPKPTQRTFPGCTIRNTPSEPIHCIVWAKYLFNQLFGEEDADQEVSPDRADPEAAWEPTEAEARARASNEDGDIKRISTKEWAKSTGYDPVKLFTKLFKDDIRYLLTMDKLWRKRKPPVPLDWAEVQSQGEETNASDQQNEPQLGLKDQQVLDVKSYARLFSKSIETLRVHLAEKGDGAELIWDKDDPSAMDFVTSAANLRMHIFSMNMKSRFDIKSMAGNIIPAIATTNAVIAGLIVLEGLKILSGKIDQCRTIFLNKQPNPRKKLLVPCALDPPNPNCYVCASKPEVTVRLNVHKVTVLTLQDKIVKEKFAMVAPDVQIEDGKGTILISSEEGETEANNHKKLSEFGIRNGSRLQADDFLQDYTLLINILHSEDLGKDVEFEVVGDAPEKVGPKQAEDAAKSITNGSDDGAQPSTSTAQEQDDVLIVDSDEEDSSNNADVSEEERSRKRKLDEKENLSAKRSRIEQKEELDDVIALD
DNA dC->dU-editing enzyme APOBEC-3G, sequence (Q9HC16 whole entry): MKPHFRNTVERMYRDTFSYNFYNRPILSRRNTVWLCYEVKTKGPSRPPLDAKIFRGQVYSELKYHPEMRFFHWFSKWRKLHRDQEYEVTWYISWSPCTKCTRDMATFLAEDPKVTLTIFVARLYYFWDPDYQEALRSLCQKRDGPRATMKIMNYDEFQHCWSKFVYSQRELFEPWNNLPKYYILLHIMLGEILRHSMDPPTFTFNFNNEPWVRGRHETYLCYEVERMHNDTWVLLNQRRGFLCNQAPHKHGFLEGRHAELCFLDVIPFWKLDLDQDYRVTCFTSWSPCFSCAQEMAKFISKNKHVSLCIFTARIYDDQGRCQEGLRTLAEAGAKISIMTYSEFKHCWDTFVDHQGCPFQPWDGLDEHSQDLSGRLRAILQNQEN
DNA dC->dU-editing enzyme APOBEC-3A, sequence (P31941 whole entry): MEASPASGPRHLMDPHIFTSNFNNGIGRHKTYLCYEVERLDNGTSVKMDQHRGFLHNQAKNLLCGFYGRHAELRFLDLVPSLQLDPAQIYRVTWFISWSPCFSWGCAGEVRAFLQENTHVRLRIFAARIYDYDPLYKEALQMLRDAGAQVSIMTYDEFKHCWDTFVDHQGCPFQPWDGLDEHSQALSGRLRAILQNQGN
Protein disulfide-isomerase, sequence (P07237 whole entry): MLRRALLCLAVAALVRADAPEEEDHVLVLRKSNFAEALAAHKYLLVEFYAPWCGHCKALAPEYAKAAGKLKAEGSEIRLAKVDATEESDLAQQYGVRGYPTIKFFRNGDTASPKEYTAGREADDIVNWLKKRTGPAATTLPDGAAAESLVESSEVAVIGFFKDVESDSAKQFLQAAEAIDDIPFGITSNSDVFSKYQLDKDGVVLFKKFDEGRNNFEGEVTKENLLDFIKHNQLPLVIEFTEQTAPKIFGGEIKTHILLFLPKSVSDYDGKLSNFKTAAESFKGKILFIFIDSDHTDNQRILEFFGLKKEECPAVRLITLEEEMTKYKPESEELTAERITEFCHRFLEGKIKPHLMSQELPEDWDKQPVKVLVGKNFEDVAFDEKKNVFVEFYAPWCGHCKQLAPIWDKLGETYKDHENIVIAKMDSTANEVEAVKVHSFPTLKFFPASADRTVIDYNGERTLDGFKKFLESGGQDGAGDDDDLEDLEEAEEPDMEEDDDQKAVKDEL

Regarding `CCCc1nnc2c3c4c(sc3ncn12)CCCC4`, the IC50 in [1] and in assay [2] was > 99 µM (inactive) each time.
`Cc1ccc(Cl)c2sc(NC(=O)c3ccc(S(=O)(=O)N4CC(C)CC(C)C4)cc3)nc12` (centres undefined): the IC50 in assay [3], in assay [4], in assay [5] and in assay [6] was > 99 µM (inactive) in each case.
As to `NNC(=O)c1cc(-c2ccc(O)cc2)nc2ccc(Br)cc12`, in [7], the concentration at half-maximal activity (AC50) – broadly, the concentration at which the activity in the assay is half-maximal – is 19.5 µM (active).
As to `Cc1cccc(-c2nc(/C=C/c3ccc(F)cc3)no2)c1`, the IC50 in assay [3], in assay [4], in assay [5] and in assay [6] was > 99 µM (inactive) throughout.
In the case of `CCN1CCN(CCNC(=O)c2ccc(/C=C3/Sc4ccccc4N(Cc4cccc(Cl)c4)C3=O)cc2)CC1`, the EC50 (as a rule, the concentration giving half of the maximal effect) in assay [8] was 1.41 µM (active); in assay [9] it was > 54.7 µM (inactive); in assay [10], 53.4 µM (inactive); in [11], 8.47 µM (active); in [12] it was > 55.9 µM (inactive). In addition, the IC50 in assay [13] is 50 µM (inactive); in [14], 19.5 µM (inactive).
In the case of `CCc1ccc(/C=C2/SC(=S)N(CCC(=O)Nc3ccc(C(=O)O)cc3)C2=O)cc1`, the IC50 in assay [15] was 14.1 µM (active); in assay [16], > 80 µM (inactive); in [17], 4.15 µM (active); in assay [18], > 100 µM (inactive); in [19], 18.1 µM (active); in assay [20], 51.7 µM (active).
